Laboratory results: publication PMC8820820, “Feasibility and safety of targeting mitochondria for cancer therapy – preclinical characterization of gamitrinib, a first-in-class, mitochondriaL-targeted small molecule Hsp90 inhibitor” (Cancer Biology & Therapy, 2022)
Read-outs that look alike come from different tables or passages of the source.

What was measured:
HCN4 = biological target: T1, HCN4 (Homo sapiens, UniProt Q9Y3Q4); test: Ion channel screening; format: cell-based; details: 10 µM
T1 sequence (Q9Y3Q4 1-1203): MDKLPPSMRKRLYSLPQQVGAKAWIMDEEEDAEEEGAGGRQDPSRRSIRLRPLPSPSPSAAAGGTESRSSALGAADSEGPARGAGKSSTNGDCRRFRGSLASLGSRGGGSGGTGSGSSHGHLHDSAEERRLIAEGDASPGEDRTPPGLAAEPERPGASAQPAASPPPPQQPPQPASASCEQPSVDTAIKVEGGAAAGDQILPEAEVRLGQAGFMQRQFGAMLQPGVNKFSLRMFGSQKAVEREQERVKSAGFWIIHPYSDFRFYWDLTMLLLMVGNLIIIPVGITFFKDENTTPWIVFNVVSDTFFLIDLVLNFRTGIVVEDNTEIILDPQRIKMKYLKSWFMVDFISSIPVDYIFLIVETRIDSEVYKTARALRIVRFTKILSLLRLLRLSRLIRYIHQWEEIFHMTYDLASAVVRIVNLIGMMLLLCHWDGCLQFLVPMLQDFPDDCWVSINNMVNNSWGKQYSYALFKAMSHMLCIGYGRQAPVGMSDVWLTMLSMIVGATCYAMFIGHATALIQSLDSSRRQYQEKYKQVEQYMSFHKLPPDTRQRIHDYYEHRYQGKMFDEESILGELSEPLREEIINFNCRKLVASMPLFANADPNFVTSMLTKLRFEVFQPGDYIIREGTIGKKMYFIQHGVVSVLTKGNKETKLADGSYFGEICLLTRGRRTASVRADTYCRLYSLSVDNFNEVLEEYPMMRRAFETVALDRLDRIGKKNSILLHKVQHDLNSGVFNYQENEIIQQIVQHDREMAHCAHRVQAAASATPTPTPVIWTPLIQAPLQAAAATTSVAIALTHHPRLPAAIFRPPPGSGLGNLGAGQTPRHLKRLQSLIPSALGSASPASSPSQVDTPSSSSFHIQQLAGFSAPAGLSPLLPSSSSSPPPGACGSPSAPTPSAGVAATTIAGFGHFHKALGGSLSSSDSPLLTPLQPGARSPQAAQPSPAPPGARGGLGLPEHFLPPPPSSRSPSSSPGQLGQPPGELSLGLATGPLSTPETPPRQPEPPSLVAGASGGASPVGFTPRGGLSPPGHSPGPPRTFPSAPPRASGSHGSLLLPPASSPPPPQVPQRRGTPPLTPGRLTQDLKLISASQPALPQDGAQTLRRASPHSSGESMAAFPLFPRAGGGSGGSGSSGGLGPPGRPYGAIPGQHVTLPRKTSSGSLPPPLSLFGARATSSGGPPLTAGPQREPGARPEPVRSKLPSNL

[1] = parameters: species or system beagle dogs; details: dog, in vivo
Method: Eighteen male and female (5–6 mo old) purebred beagle dogs (Cumberland, VA) were acclimated for 47 d (20°C to 26°C, relative humidity 30–70%, 10 or greater air changes/h, and a 12-h light/dark cycle) prior to study initiation. Animals were given water ad libitum and Certified Canine Diet #5007 (PMI Nutrition International Certified LabDiet®) for 4 to 5 h each day. At study initiation, animal body weights ranged from 8.6 to 11.5 kg for males and 6.0 to 9.4 kg for females. At least 1 week prior to initiation of dosing, animals were fasted overnight, anesthetized, and a catheter attached to a subcutaneous vascular access port was surgically implanted into a jugular vein. Animals were acclimated to infusion jackets prior to catheter implantation surgery. Animals were infused with sterile saline at a dose rate of 5 mL/h when the vascular access ports were accessed and when animals were connected to the infusion system (except when dosed with the test or vehicle control article). The patency of each catheter was checked as needed. Prednisolone tablets were administered orally at 2 mg/kg the night prior to dosing. Diphenhydramine (5 mg/kg; IM injection 0.1 mL/kg, 50 mg/mL) was administered prior to dosing and post the start of infusion (d 1 only). Male and female dogs received dose levels of Gamitrinib of 1.25, 3.33 and 6.25 mg/kg/dose formulated as indicated above during a 1 h infusion on d 1, 8, 11, 15, 18, 22, 25, 29, 32, and 36 at a volume of 2 mL/kg. The vehicle control was as above. […] Dosing was stopped, and 23 of 24 animals were administered additional diphenhydramine, 11 were administered Flunixin meglumine and buprenorphine, and 6 were administered acepromazine. Symptoms subsided in all animals after completion of these interventions. As a result of these observations, the polysorbate levels, which were increased from 0.025% (w/v) to 0.125% (w/v) to minimize precipitation, were returned to the original concentrations; 2 mg/kg prednisone was administered orally the night prior to dosing; and the diphenhydramine pretreatment dose was updated to 5 mg/kg 15 to 30 min prior to dosing. Detailed observations were conducted for each animal up to seven times during the predose phase, prior to dosing on d 1, 8, 15, 22, 29, and 36 of the dosing phase, and on d 1, 7, and 14 of the recovery phase. Blood samples (1 mL) were collected via the cephalic vein 5, 15, and 30 min and 1, 4, 8, and 24 h post the end of infusion on d 8 and 36 of the dosing phase. Formalin-fixed and paraffin-embedded tissue samples collected at the end of the study (d 39) were processed for histologic examination.

COC1C=CC=C(C)C(=O)NC2=CC(=O)C(NCCCCCC[P+](c3ccccc3)(c3ccccc3)c3ccccc3)=C(CC(C)CC(OC)C(O)C(C)C=C(C)C1OC(N)=O)C2=O.F[P-](F)(F)(F)(F)F (centres unmarked) [Gamitrinib]
inhibition of HCN4 currents (HCN4): −0.2 ± 3.7% | AUC0–24 ([1]; 3.33 mg/kg): 1740 ± 713 ng·h/mL | Cmax ([1]; 3.33 mg/kg): 560 ± 404 ng/mL | AUC0–24 ([1]; 6.25 mg/kg): 3290 ± 1090 ng·h/mL | Cmax ([1]; 6.25 mg/kg): 1260 ± 556 ng/mL
